Measurements reported in patent US6740664B2, “Methods for treating otic and ophthalmic infections” (Alcon, Inc., priority 1998, dated 2004).
In brackets after ≈: the same amount, converted by molar mass. Read-outs that look alike come from different tables or passages of the source.

Legend:
[1] = system: H influenzae/β-lactamase negative; test: MIC90 against bacteria associated with otic, ophthalmic and nasal infections; assay type: cell-based
Text: (§1) The concentrations of the antibiotics of formula (I) in the compositions of the present invention will vary depending on the intended use of the compositions (e.g., treatment of existing infections or prevention of post-surgical infections), and the relative antimicrobial activity of the specific antibiotic selected. The antimicrobial activity of antibiotics is generally expressed as the minimum concentration required to inhibit the growth of a specified pathogen. This concentration is also referred to as the “minimum inhibitory concentration” or “MIC”. The term “MIC90” refers to the minimum concentration of antibiotic required to inhibit the growth of ninety percent (90%) of the strains of a species. The concentration of an antibiotic required to totally kill a specified bacteria is referred to as the “minimum bactericidal concentration” or “MBC”.

[2] = system: H. influenzae/β-lactamase positive; test: as above; assay type: cell-based
Text: as §1

[3] = system: P. aeruginosa; test: as above; assay type: cell-based
Text: as §1

[4] = system: S. aureus/methicillin resistant; test: as above; assay type: cell-based
Text: as §1

[5] = system: S. aureus/methicillin sensitive; test: as above; assay type: cell-based
Text: as §1

[6] = system: S. aureus/quinolone resistant; test: as above; assay type: cell-based
Text: as §1

[7] = system: S. epidermidis/methicillin resistant; test: as above; assay type: cell-based
Text: as §1

[8] = system: S. epidermidis/methicillin sensitive; test: as above; assay type: cell-based
Text: as §1

[9] = system: S. pneumoniae/penicillin resistant; test: as above; assay type: cell-based
Text: as §1

[10] = system: S. pneumoniae/penicillin sensitive; test: as above; assay type: cell-based
Text: as §1

[11] = system: Microbacterium alconae; test: In vitro MIC by agar and broth dilution methods (NCCLS M7-A4), clinical isolates; assay type: cell-based
Protocol: (§2) The activity levels were determined as MIC (minimum inhibitory concentration) values. In order to compare the activity of the compounds of the present invention to other antibiotics, MIC values for representatives quinolones, aminoglycosides, β-lactams and other types of antibiotics were also determined. […] The MCC numbers (e.g., “MCC 10647”) represent separate clinical isolates of the two Microbacterium species tested.

[12] = system: Microbacterium otitidis; test: as above; assay type: cell-based
Protocol: as §2

[13] = system: M. otitidis; test: MIC90 against bacteria associated with otic, ophthalmic and nasal infections; assay type: cell-based, Microbacterium otitidis
Text: as §1

[14] = system: M. alconae; test: as above; assay type: cell-based, Microbacterium alconae
Text: as §1

[15] = Haemophilus influenzae, read-out: MIC90
[16] = Pseudomonas aeruginosa, read-out: MIC90
[17] = Staphylococcus aureus, read-out: MIC90
[18] = Staphylococcus epidermidis, read-out: MIC90
[19] = Streptococcus pneumoniae, read-out: MIC90
[20] = Microbacterium alconae clinical isolate MCC 11316
[21] = Microbacterium alconae clinical isolate MCC 11558
[22] = Microbacterium alconae clinical isolate MCC 11639
[23] = Microbacterium alconae clinical isolate MCC 11653
[24] = Microbacterium alconae clinical isolate MCC 11699
[25] = Microbacterium otitidis clinical isolate MCC 10647
[26] = Microbacterium otitidis clinical isolate MCC 10810
[27] = Microbacterium otitidis clinical isolate MCC 10990
[28] = Microbacterium otitidis clinical isolate MCC 11495
[29] = Microbacterium otitidis clinical isolate MCC 11676

For `COc1c(N2CCNC(C)C2)c(F)cc2c(=O)c(C(=O)O)cn(C3CC3)c12` (centres unmarked) [Gatifloxacin], the MIC90 [1, 15] was 0.06 µg/mL (≈ 0.16 µM), the MIC90 [2, 15] was 0.06 µg/mL (≈ 0.16 µM) and the MIC90 [3, 16] was 2 µg/mL (≈ 5.33 µM). It also gave an MIC90 [4, 17] of 8 µg/mL (≈ 21.3 µM), an MIC90 [5, 17] of 0.25 µg/mL (≈ 0.666 µM) and an MIC90 [6, 17] of 8 µg/mL (≈ 21.3 µM). For the same compound, the MIC90 [7, 18] was 4 µg/mL (≈ 10.7 µM), the MIC90 [8, 18] was 0.5 µg/mL (≈ 1.33 µM) and the MIC90 [9, 19] was 0.25 µg/mL (≈ 0.666 µM). For the same compound, the MIC90 [10, 19] was 0.25 µg/mL (≈ 0.666 µM).

`N[C@@H]1[C@H]2CN(c3nc4c(cc3F)c(=O)c(C(=O)O)cn4-c3ccc(F)cc3F)C[C@@H]12` [Trovafloxacin] gave an MIC90 [1, 15] of 0.03 µg/mL (≈ 0.0721 µM), an MIC90 [2, 15] of 0.03 µg/mL (≈ 0.0721 µM) and an MIC90 [3, 16] of 2 µg/mL (≈ 4.8 µM). For the same compound, the MIC90 [4, 17] was 2 µg/mL (≈ 4.8 µM), the MIC90 [5, 17] was 0.03 µg/mL (≈ 0.0721 µM) and the MIC90 [6, 17] was 4 µg/mL (≈ 9.61 µM). It also gave an MIC90 [7, 18] of 4 µg/mL (≈ 9.61 µM), an MIC90 [8, 18] of 0.06 µg/mL (≈ 0.144 µM) and an MIC90 [9, 19] of 0.25 µg/mL (≈ 0.6 µM). For the same compound, the MIC90 [10, 19] was 0.25 µg/mL (≈ 0.6 µM).

In the case of Gentamicin, the “minimum inhibitory concentration (MIC)” value [11, 20] is reported as 2.0 micrograms per milliliter, the “minimum inhibitory concentration (MIC)” value [11, 21] is reported as 2.0 micrograms per milliliter and the “minimum inhibitory concentration (MIC)” value [11, 22] is reported as 2.0 micrograms per milliliter. For the same compound, the “minimum inhibitory concentration (MIC)” value [11, 23] was 2.0 micrograms per milliliter, the “minimum inhibitory concentration (MIC)” value [11, 24] was 2.0 micrograms per milliliter and the “minimum inhibitory concentration (MIC)” value [12, 25] was 8.0 micrograms per milliliter. For the same compound, the “minimum inhibitory concentration (MIC)” value [12, 26] was 4.0 micrograms per milliliter, the “minimum inhibitory concentration (MIC)” value [12, 27] was 4.0 micrograms per milliliter and the “minimum inhibitory concentration (MIC)” value [12, 28] was 16 micrograms per milliliter. The “minimum inhibitory concentration (MIC)” value [12, 29] was 4.0 micrograms per milliliter.

Compound Grepafloxacin has an MIC90 [1] of 0.008 micrograms per milliliter, an MIC90 [2] of 0.008 micrograms per milliliter and an MIC90 [3] of 8.0 micrograms per milliliter. The MIC90 [4] was 0.13 micrograms per milliliter, the MIC90 [5] was 0.13 micrograms per milliliter and the MIC90 [6] was 0.13 micrograms per milliliter. The MIC90 [7] was 0.13 micrograms per milliliter, the MIC90 [8] was 0.13 micrograms per milliliter and the MIC90 [9] was 0.25 micrograms per milliliter. The MIC90 [10] was 0.25 micrograms per milliliter.

In the case of Moxifloxacin, the MIC90 [1] is reported as 0.06 micrograms per milliliter, the MIC90 [2] is reported as 0.06 micrograms per milliliter and the MIC90 [3] is reported as 8.0 micrograms per milliliter. For the same compound, the MIC90 [4] was 4.0 micrograms per milliliter, the MIC90 [5] was 0.13 micrograms per milliliter and the MIC90 [6] was 4.0 micrograms per milliliter. It also gave an MIC90 [7] of 4.0 micrograms per milliliter, an MIC90 [8] of 0.25 micrograms per milliliter and an MIC90 [9] of 0.25 micrograms per milliliter. It also gave an MIC90 [10] of 0.25 micrograms per milliliter, an MIC90 [13] of 2.0 micrograms per milliliter and an MIC90 [14] of 0.25 micrograms per milliliter.

In the case of Neomycin, the “minimum inhibitory concentration (MIC)” value [11, 20] is reported as 1.0 micrograms per milliliter, the “minimum inhibitory concentration (MIC)” value [11, 21] is reported as 1.0 micrograms per milliliter and the “minimum inhibitory concentration (MIC)” value [11, 22] is reported as 1.0 micrograms per milliliter. The “minimum inhibitory concentration (MIC)” value [11, 23] was 1.0 micrograms per milliliter, the “minimum inhibitory concentration (MIC)” value [11, 24] was 1.0 micrograms per milliliter and the “minimum inhibitory concentration (MIC)” value [12, 25] was 8.0 micrograms per milliliter. The “minimum inhibitory concentration (MIC)” value [12, 26] was 2.0 micrograms per milliliter, the “minimum inhibitory concentration (MIC)” value [12, 27] was 2.0 micrograms per milliliter and the “minimum inhibitory concentration (MIC)” value [12, 28] was 8.0 micrograms per milliliter. The “minimum inhibitory concentration (MIC)” value [12, 29] was 2.0 micrograms per milliliter.

For Polymyxin B, the “minimum inhibitory concentration (MIC)” value [11, 22] was 16 micrograms per milliliter, the “minimum inhibitory concentration (MIC)” value [11, 23] was 16 micrograms per milliliter and the “minimum inhibitory concentration (MIC)” value [11, 24] was 16 micrograms per milliliter. For the same compound, the “minimum inhibitory concentration (MIC)” value [12, 26] was 260 micrograms per milliliter, the “minimum inhibitory concentration (MIC)” value [12, 27] was 260 micrograms per milliliter and the “minimum inhibitory concentration (MIC)” value [12, 29] was 16 micrograms per milliliter.
